# In PubChem BioAssay AID1919010 (Molecular Pharmacology Branch, DTP, NCI, 2023):
# “And” between values parts separate entries of the source, which are not always exact repeats. Equal values may be shown once.
# System: Hs578T complex spheroid growth, percent test/control
# Assay: Anticancer human tumor Hs578T cell line growth inhibition [AhR];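 further: luminescent viability signal as a proxy for spheroid growth; spheroids exposed to agents for one week after three days of growth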
# Conditions: for viability, T/C: stronger effect = lower value
# Outline: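 Spheroids combined tumor cells with HUVEC endothelial cells and human MSCs as stroma. AhR antagonists were paired with standard or investigational drugs, each dosed in half-log steps down from near clinical Cmax, or from 10 microM where Cmax was unknown.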
# [1] = curve of first compound, second compound 0.1 µM
# [2] = curve of first compound, second compound 0.316 µM
# [3] = curve of first compound, second compound 1 µM
# [4] = curve of first compound, second compound 3.16 µM
# [5] = curve of first compound, second compound 10 µM
# [6] = second compound 0.1 µM, first compound 0.0316 µM
# [7] = second compound 0.1 µM, first compound 0.1 µM
# [8] = second compound 0.1 µM, first compound 0.316 µM
# [9] = second compound 0.1 µM, first compound 1 µM
# [10] = second compound 0.1 µM, first compound 3.16 µM
# [11] = second compound 0.1 µM, first compound 10 µM
# [12] = second compound 0.316 µM, first compound 0.0316 µM
# [13] = second compound 0.316 µM, first compound 0.1 µM
# [14] = second compound 0.316 µM, first compound 0.316 µM
# [15] = second compound 0.316 µM, first compound 1 µM
# [16] = second compound 0.316 µM, first compound 3.16 µM
# [17] = second compound 0.316 µM, first compound 10 µM
# [18] = second compound 1 µM, first compound 0.0316 µM
# [19] = second compound 1 µM, first compound 0.1 µM
# [20] = second compound 1 µM, first compound 0.316 µM
# [21] = second compound 1 µM, first compound 1 µM
# [22] = second compound 1 µM, first compound 3.16 µM
# [23] = second compound 1 µM, first compound 10 µM
# [24] = second compound 3.16 µM, first compound 0.0316 µM
# [25] = second compound 3.16 µM, first compound 0.1 µM
# [26] = second compound 3.16 µM, first compound 0.316 µM
# [27] = second compound 3.16 µM, first compound 1 µM
# [28] = second compound 3.16 µM, first compound 3.16 µM
# [29] = second compound 3.16 µM, first compound 10 µM
# [30] = second compound 10 µM, first compound 0.0316 µM
# [31] = second compound 10 µM, first compound 0.1 µM
# [32] = second compound 10 µM, first compound 0.316 µM
# [33] = second compound 10 µM, first compound 1 µM
# [34] = second compound 10 µM, first compound 3.16 µM
# [35] = second compound 10 µM, first compound 10 µM
structure (smiles),measurement,setting,value
O=C(C=Cc1cccc(S(=O)(=O)Nc2ccccc2)c1)NO + Cc1ccccc1N=Nc1ccc(NC(=O)c2ccnn2C)c(C)c1,IC50,[1],1850 nM
same,IC50,[2],1780 nM
same,IC50,[3],1860 nM
same,IC50,[4],1770 nM
same,IC50,[5],1500 nM
same,"viability, T/C",[6],99%
same,"viability, T/C",[7],107%
same,"viability, T/C",[8],94%
same,"viability, T/C",[9],77.5%
same,"viability, T/C",[10],26.2%
same,"viability, T/C",[11],0.74%
same,"viability, T/C",[12],105%
same,"viability, T/C",[13],108%
same,"viability, T/C",[14],94%
same,"viability, T/C",[15],74%
same,"viability, T/C",[16],26.9%
same,"viability, T/C",[17],0.66%
same,"viability, T/C",[18],109%
same,"viability, T/C",[19],104%
same,"viability, T/C",[20],96.5%
same,"viability, T/C",[21],77.6%
same,"viability, T/C",[22],26.9%
same,"viability, T/C",[23],0.82%
same,"viability, T/C",[24],93.5%
same,"viability, T/C",[25],87.2%
same,"viability, T/C",[26],98.5%
same,"viability, T/C",[27],71.9%
same,"viability, T/C",[28],26.3%
same,"viability, T/C",[29],1.13%
same,"viability, T/C",[30],64.2%
same,"viability, T/C",[31],67.2%
same,"viability, T/C",[32],64%
same,"viability, T/C",[33],63.2%
same,"viability, T/C",[34],25.9%
same,"viability, T/C",[35],1.32%
COc1ccc([C@@H](O)c2cc(-c3ncnc4cc(N5CCOCC5)ccc34)c(F)cc2Cl)nn1 + CC(CO)NC(=O)c1cc(-c2ccc(Cl)cc2)nn(-c2cnn(C)c2)c1=O,IC50,[1],5550 nM
same,IC50,[2],4860 nM
same,IC50,[3],6020 nM
same,IC50,[4],4180 nM
same,IC50,[5],4860 nM
same,"viability, T/C",[6],109%
same,"viability, T/C",[7],111%
same,"viability, T/C",[8],105%
same,"viability, T/C",[9],89.2%
same,"viability, T/C",[10],64.2%
same,"viability, T/C",[11],35.7%
same,"viability, T/C",[12],113%
same,"viability, T/C",[13],115%
same,"viability, T/C",[14],104%
same,"viability, T/C",[15],87.2%
same,"viability, T/C",[16],57.8%
same,"viability, T/C",[17],36.7%
same,"viability, T/C",[18],117%
same,"viability, T/C",[19],112%
same,"viability, T/C",[20],102%
same,"viability, T/C",[21],85.8%
same,"viability, T/C",[22],65.1%
same,"viability, T/C",[23],38.3%
same,"viability, T/C",[24],111%
same,"viability, T/C",[25],106%
same,"viability, T/C",[26],102%
same,"viability, T/C",[27],84%
same,"viability, T/C",[28],52.9%
same,"viability, T/C",[29],38.7%
same,"viability, T/C",[30],95.6%
same,"viability, T/C",[31],97.5%
same,"viability, T/C",[32],99.9%
same,"viability, T/C",[33],82.5%
same,"viability, T/C",[34],56.9%
same,"viability, T/C",[35],39.5%
O=C(c1cc(Cc2n[nH]c(=O)c3ccccc23)ccc1F)N1CCN(C(=O)C2CC2)CC1,"viability, T/C",compound 0.0316 µM,104% and 103% and 102%
same,"viability, T/C",compound 0.1 µM,108% and 102% and 106%
same,"viability, T/C",compound 0.316 µM,109% and 98.8% and 95%
same,"viability, T/C",compound 1 µM,104% and 103% and 88.4%
same,"viability, T/C",compound 3.16 µM,90.8% and 91.2% and 88.4%
same,"viability, T/C",compound 10 µM,82.5% and 75.1% and 82.1%
same,IC50,curve of compound,> 10000 nM
CCc1c2c(nc3ccc(O)cc13)-c1cc3c(c(=O)n1C2)COC(=O)[C@]3(O)CC + Cc1ccccc1N=Nc1ccc(NC(=O)c2ccnn2C)c(C)c1,IC50,[1],84.6 nM
same,IC50,[2],130 nM
same,IC50,[3],68.7 nM
same,IC50,[4],39.1 nM
same,IC50,[5],8.73 nM
same,"viability, T/C","second compound 0.1 µM, first compound 0.000949 µM",77.4%
same,"viability, T/C","second compound 0.1 µM, first compound 0.003 µM",76.4%
same,"viability, T/C","second compound 0.1 µM, first compound 0.00949 µM",73.1%
same,"viability, T/C","second compound 0.1 µM, first compound 0.03 µM",57.9%
same,"viability, T/C","second compound 0.1 µM, first compound 0.0949 µM",50.8%
same,"viability, T/C","second compound 0.1 µM, first compound 0.3 µM",31.5%
same,"viability, T/C","second compound 0.316 µM, first compound 0.000949 µM",91%
same,"viability, T/C","second compound 0.316 µM, first compound 0.003 µM",78.4%
same,"viability, T/C","second compound 0.316 µM, first compound 0.00949 µM",72.1%
same,"viability, T/C","second compound 0.316 µM, first compound 0.03 µM",65.4%
same,"viability, T/C","second compound 0.316 µM, first compound 0.0949 µM",53%
same,"viability, T/C","second compound 0.316 µM, first compound 0.3 µM",41.5%
same,"viability, T/C","second compound 1 µM, first compound 0.000949 µM",72.8%
same,"viability, T/C","second compound 1 µM, first compound 0.003 µM",69.4%
same,"viability, T/C","second compound 1 µM, first compound 0.00949 µM",69.1%
same,"viability, T/C","second compound 1 µM, first compound 0.03 µM",60.9%
same,"viability, T/C","second compound 1 µM, first compound 0.0949 µM",45.7%
same,"viability, T/C","second compound 1 µM, first compound 0.3 µM",36.7%
same,"viability, T/C","second compound 3.16 µM, first compound 0.000949 µM",69.1%
same,"viability, T/C","second compound 3.16 µM, first compound 0.003 µM",73.8%
same,"viability, T/C","second compound 3.16 µM, first compound 0.00949 µM",62.5%
same,"viability, T/C","second compound 3.16 µM, first compound 0.03 µM",52%
same,"viability, T/C","second compound 3.16 µM, first compound 0.0949 µM",41.8%
same,"viability, T/C","second compound 3.16 µM, first compound 0.3 µM",31.9%
same,"viability, T/C","second compound 10 µM, first compound 0.000949 µM",60.4%
same,"viability, T/C","second compound 10 µM, first compound 0.003 µM",51.1%
same,"viability, T/C","second compound 10 µM, first compound 0.00949 µM",50.7%
same,"viability, T/C","second compound 10 µM, first compound 0.03 µM",46.3%
same,"viability, T/C","second compound 10 µM, first compound 0.0949 µM",34.7%
same,"viability, T/C","second compound 10 µM, first compound 0.3 µM",30.3%
